Data on one compound can be found in patent publication US5153308A, “S-sulfonated calcitonin derivatives” (Teijin Limited, priority 1988, dated 1992).

Molecules are shown by their SMILES. *1 amine or outer side, *2 acyl side, *3 side chain or, on linkers, in order; H or OH if unused. Where a SMILES comes first, the peptide text is derived from it. [ ]: non-standard residue; d: D form. X1 = O=C([C@H](CSS(=O)(=O)O)N[*:1])[*:2]

Data set [1] can be described thus: Stability test in frozen state (residual amount by reverse HPLC). Format: physicochemical. The following applies: -80° C., 5 months, compared to native calcitonin-I. On the procedure: First, 50 μg each of the diS-sulfonated salmon calcitonin-I and salmon calcitonin-I were separately dissolved in 100 μl of 2.5 mM citrate (pH 2.8) buffer, and the solutions were frozen and stored at -80° C. After 5 months, the frozen samples were thawed, and residual diS-sulfonated salmon calcitonin-I and salmon calcitonin-I were measured by reverse HPLC.

Data set [2] in a line: Stability test in liquid form (residual amount by reverse HPLC). Format: physicochemical. The following applies: 37° C., 2 weeks, compared to native salmon calcitonin-I. The protocol: First, 50 μg each of the diS-sulfonated salmon calcitonin-I and salmon calcitonin-I were separately dissolved in 100 μl of 50 mM Tris-Hcl buffer solution (pH 7.2), and the solutions were stored at 37° C. After 2 weeks, the residual diS-sulfonated salmon calcitonin-I and salmon calcitonin-I were measured by reverse HPLC.

On to `CC(C)C[C@H](NC(=O)[C@H](CCCCN)NC(=O)CNC(=O)[C@H](CC(C)C)NC(=O)[C@@H](NC(=O)[C@H](CSS(=O)(=O)O)NC(=O)[C@@H](NC(=O)[C@H](CO)NC(=O)[C@H](CC(C)C)NC(=O)[C@H](CC(N)=O)NC(=O)[C@H](CO)NC(=O)[C@@H](N)CSS(=O)(=O)O)[C@@H](C)O)C(C)C)C(=O)N[C@@H](CO)C(=O)N[C@@H](CCC(N)=O)C(=O)N[C@@H](CCC(=O)O)C(=O)N[C@@H](CC(C)C)C(=O)N[C@@H](Cc1c[nH]cn1)C(=O)N[C@@H](CCCCN)C(=O)N[C@@H](CC(C)C)C(=O)N[C@@H](CCC(N)=O)C(=O)N[C@H](C(=O)N[C@@H](Cc1ccc(O)cc1)C(=O)N1CCC[C@H]1C(=O)N[C@@H](CCCNC(=N)N)C(=O)N[C@H](C(=O)N[C@@H](CC(N)=O)C(=O)N[C@H](C(=O)NCC(=O)N[C@@H](CO)C(=O)NCC(=O)N[C@H](C(=O)N1CCC[C@H]1C(N)=O)[C@@H](C)O)[C@@H](C)O)[C@@H](C)O)[C@@H](C)O` [diS-sulfonated salmon calcitonin-I] (H-[X1]SNLST[X1]VLGKLSQELHKLQTYPRTNTGSGTP-NH2), for which the “Stability in the frozen state (in words)” value in data set [1] is on record as “remarkably stable”. For the same compound, in data set [2], the “Stability in a solution (in words)” value is “remarkably stable”.
